Measured values published in ChEMBL document CHEMBL4371047, “Effect of α-Methoxy Substitution on the Anti-HIV Activity of Dihydropyrimidin-4(3 H)-ones” (J Med Chem, 2019).

Columns and labels:
[1] = test system: Human immunodeficiency virus 1; experiment: Antiviral activity against HIV-1 harboring reverse transcriptase K103N mutant infected in human MT4 cells assessed as inhibition of virus-induced cytopathic effect after 5 days by MTT assay; format: functional, organism-based; settings: Human immunodeficiency virus 1, MT4, 120 h
[2] = test system: Human immunodeficiency virus type 1 reverse transcriptase (Human immunodeficiency virus 1), Q72547 [L100I]
[3] = target: Human immunodeficiency virus type 1 reverse transcriptase (Human immunodeficiency virus 1) (UniProt Q72547)
Description: Inhibition of recombinant wild type HIV-1 His-tagged reverse transcriptase p66/p51 expressed in Escherichia coli assessed as reduction in [3H]dTTP incorporation using poly(rA)/oligo(dT) as template/primer after 20 mins by scintillation counting analysis

[4] = test system: Human immunodeficiency virus type 1 reverse transcriptase (Human immunodeficiency virus 1), Q72547 [K103N]
Description: Inhibition of recombinant HIV-1 His-tagged reverse transcriptase p66/p51 K103N mutant expressed in Escherichia coli assessed as reduction in [3H]dTTP incorporation using poly(rA)/oligo(dT) as template/primer after 20 mins by scintillation counting analysis

[5] = Therapeutic index, ratio of CC50 for human MT4 cells to EC50 for HIV-1 NL4-3 infected in human MT4 cells; format: toxicity, cell-based; settings: read-out: Ratio CC50/EC50
[6] = Cytotoxicity against human MT4 cells assessed as reduction in cell viability after 5 days by MTT assay; format: cell-based
[7] = test system: Human immunodeficiency virus 1; experiment: Resistance index, ratio of EC50 for HIV-1 harboring reverse transcriptase K103N mutant to EC50 for wild type HIV-1 NL4-3; format: functional
[8] = test system: Human immunodeficiency virus 1; experiment: Antiviral activity against HIV 1 harboring reverse transcriptase Y181C mutant infected in human MT4 cells assessed as inhibition of virus-induced cytopathic effect after 5 days by MTT assay; format: functional, organism-based; settings: Human immunodeficiency virus 1, MT4, 120 h
[9] = test system: Human immunodeficiency virus 1; experiment: Resistance index, ratio of EC50 for HIV-1 harboring reverse transcriptase Y181C mutant to EC50 for wild type HIV-1 NL4-3; format: functional
[10] = test system: Human immunodeficiency virus 1; experiment: Resistance index, ratio of ID50 for recombinant HIV-1 His-tagged reverse transcriptase p66/p51 K103N mutant to ID50 for recombinant wild type HIV-1 reverse transcriptase His-tagged p66/p51
[11] = test system: Human immunodeficiency virus 1; experiment: Antiviral activity against HIV-1 harboring reverse transcriptase Y188L mutant infected in human MT4 cells assessed as inhibition of virus-induced cytopathic effect after 5 days by MTT assay; format: functional, organism-based; settings: Human immunodeficiency virus 1, MT4, 120 h
[12] = test system: Human immunodeficiency virus 1; experiment: Resistance index, ratio of ID50 for recombinant HIV-1 His-tagged reverse transcriptase p66/p51 L100I mutant to ID50 for recombinant wild type HIV-1 reverse transcriptase His-tagged p66/p51
[13] = test system: Human immunodeficiency virus type 1 reverse transcriptase (Human immunodeficiency virus 1), Q72547 [Y181I]
[14] = test system: Human immunodeficiency virus 1; experiment: Resistance index, ratio of EC50 for HIV-1 harboring reverse transcriptase Y188L mutant to EC50 for wild type HIV-1 NL4-3; format: functional
[15] = test system: Human immunodeficiency virus 1; experiment: Antiviral activity against wild type HIV 1 NL4-3 infected in human MT4 cells assessed as inhibition of virus-induced cytopathic effect after 5 days by MTT assay; format: functional, organism-based; settings: Human immunodeficiency virus 1, NL4-3, MT4, 120 h
[16] = test system: Human immunodeficiency virus 1; experiment: Resistance index, ratio of ID50 for recombinant HIV-1 His-tagged reverse transcriptase p66/p51 Y181I mutant to ID50 for recombinant wild type HIV-1 reverse transcriptase His-tagged p66/p51

Row | Compound | EC50 [1] | ID50 [2] | ID50 [3] | ID50 [4] | selectivity ratio [5] | CC50 at 120 h [6] | Ratio EC50 [7] | EC50 [8] | Ratio EC50 [9] | Ratio [10] | EC50 [11] | Ratio [12] | ID50 [13] | Ratio EC50 [14] | EC50 [15] | Ratio [16]
1 | CCC(C)Sc1nc(C(CC)c2c(F)cccc2Cl)c(C)c(=O)[nH]1 (centres undefined) | > 3000 nM | 120 nM | 2 nM | 450 nM | > 56 | > 3000 nM | – | – | – | – | – | – | – | – | – | –
2 | COC(c1nc(SC(C)C)[nH]c(=O)c1C)c1c(Cl)cccc1Cl (centres undefined) | 1900 nM | 7900 nM | 59 nM | 9300 nM | 12900 | 51700 nM | 475 | 3200 nM | 800 | 158 | 7200 nM | 134 | > 40000 nM | 1800 | 4 nM | –
3 | COC(c1nc(SC2CCCC2)[nH]c(=O)c1C)c1c(Cl)cccc1Cl (centres undefined) | 2900 nM | 8400 nM | 95 nM | 12400 nM | 3660 | 29300 nM | 362 | 4000 nM | 500 | 131 | 7200 nM | 88 | > 40000 nM | 900 | 8 nM | –
4 | CCC(C)Sc1nc(C(OC)c2c(Cl)cccc2Cl)c(C)c(=O)[nH]1 (centres undefined) | 770 nM | 5200 nM | 15 nM | 3700 nM | 36400 | 32800 nM | 856 | 2800 nM | 3111 | 247 | 5800 nM | 347 | > 40000 nM | 6444 | 0.9 nM | –
5 | CCCNc1nc(C(OC)c2c(F)cccc2Cl)c(C)c(=O)[nH]1 (centres undefined) | 150 nM | 1700 nM | 65 nM | 540 nM | 8600 | 77400 nM | 17 | 940 nM | 104 | 8 | 5000 nM | – | 2800 nM | 555 | 9 nM | 43
6 | Cc1c(C(C)c2c(F)cccc2F)nc(SC(C)C)[nH]c1=O (centres undefined) | – | – | – | – | > 3000 | > 3000 nM | – | – | – | – | – | – | – | – | – | –
7 | CCC(c1nc(SC(C)C)[nH]c(=O)c1C)c1c(F)cccc1Cl (centres undefined) | > 3000 nM | 120 nM | 6 nM | 420 nM | > 36 | > 3000 nM | – | – | – | – | – | – | – | – | – | –
8 | CCCN(C)c1nc(C(OC)c2c(F)cccc2F)c(C)c(=O)[nH]1 (centres undefined) | 31 nM | 1400 nM | 35 nM | 150 nM | > 15600 | > 77800 nM | – | 180 nM | 20 | 4 | 230 nM | 40 | 1200 nM | 26 | 5 nM | 34
9 | CO[C@H](c1nc(SC(C)C)[nH]c(=O)c1C)c1c(F)cccc1Cl | 380 nM | 12300 nM | 77 nM | 950 nM | > 1160 | > 40500 nM | – | 1350 nM | – | 12 | 3800 nM | 160 | 5800 nM | 75 | 35 nM | 75
10 | CCC(c1nc(SC2CCCC2)[nH]c(=O)c1C)c1c(F)cccc1Cl (centres undefined) | > 3000 nM | 68 nM | 4 nM | 340 nM | > 5 | > 3000 nM | – | – | – | – | – | – | – | – | – | –
11 | CCCN(C)c1nc(C(OC)c2c(F)cccc2Cl)c(C)c(=O)[nH]1 (centres undefined) | 12 nM | 950 nM | 26 nM | 288 nM | > 18500 | > 74100 nM | 3 | 98 nM | 24 | – | 120 nM | 36 | 1100 nM | 30 | 4 nM | 42
